Test results from patent US20080319042A1, “Compositions and methods for treatment of liver disease” (priority 2007, published 2008).
Converted amounts (≈) assume the structure as drawn. “And” between values parts separate entries of the source, which are not always exact repeats. Equal values may be shown once.

Assays:
HCV = settings: cited from earlier work
HCV/HIV pseudovirions = experiment: microbe, parasite or virus in culture; type: cell-based, hepatitis C virus
HCV JFH1 = HCV JFH1 infectivity assay (JFH1 Foci Reduction Assay); type: cell-based, hepatitis C virus; settings: virus preincubated with compound, Huh 7 cells, 48 hr post infection, RD8, RD16, RD17, RD18 as glucosidase hydrolysis products
[1] = tested on: hepatitis B surface antigen (HBsAg) production; experiment: Anti-HBSAg Assay (Procedure A); type: cell-based, hepatitis B virus; settings: 50 μg/ml
Procedure: (§1) The HBV-producing human hepatoblastoma cell line, Hep G2.2.15 was maintained in DMEM supplemented with 10% fetal bovine serum (FBS), 2 mM glutamine, 100 units/ml penicillin, 100 μg/ml streptomycin and 380 μg/ml gentamicin sulfate (G418) at 37° C. under 5% CO2 in air. The Hep G2 parental cells were grown under identical conditions in MEM with Earle's salts without G418.
(§2) Hep G2.2.15 cells (190 μl) were seeded onto microtiter plates at a concentration of 20×10^4 cells/ml. The cells incubated overnight in medium without G418 after which the compound compositions (10 μl) were added. Five 2-fold serial dilutions of extracts or fractions were tested starting at 200 μg/ml final culture concentration. PBS and 3TC (lamivudine) were included as the negative and positive controls, respectively. The treated cells were incubated at 37° C. for 4 days, after which the hepatitis B surface antigen (HBsAg) production in culture supernatants was assayed. The HBsAg released into the culture medium in the presence or absence of test samples was assayed using the BIO-RAD Genetic Systems HBsAg EIA 3.0 kit (Bio-Rad, Redmond, Wash.). This enzyme immunoassay is based on the capture of HBsAg on monoclonal antibody-coated plates. Four- and twelve-fold dilutions of all culture supernatants collected were assayed in triplicate wells of the EIA plate. The percentage inhibition of HBsAg secretion in the presence of the plant samples was calculated against the negative control (PBS).

Hep G2.2.15 cells = experiment: % Cell Viability in Anti-HBSAg Assay (Procedure A); type: cell-based, human; settings: 50 μg/ml
Procedure: as §1, §2

HBsAg = experiment: Anti-HBSAg Assay (Procedure B), HBsAg; type: cell-based, hepatitis B virus
Procedure: The HBV-producing human hepatoblastoma cell line, Hep G2 2.2.15 is maintained in DMEM supplemented with 10% fetal bovine serum (FBS), 2 mM glutamine, 100 units/ml penicillin, 100 μg/ml streptomycin at 37° C. under 5% CO2 in air.
Samples were dissolved in DMSO at the concentration of 20 mg/mL, then further diluted with DMEM medium to the appropriate concentration.
Hep G2 2.2.15 cells (120 μl) were seeded onto 96-well plates at a concentration of 2×10^5 cells/mL. The cells incubated for 72 h in the medium without G418, after which the test samples (120 μl) were added. Five 3-fold serial dilutions of samples were tested. PBS and 3TC (lamivudine) were included as the negative and positive controls, respectively. The treated cells were incubated at 37° C. for 9 days; with the medium with sample being changed each 3 days, after which the culture supernatant was removed for analysis of both the hepatitis B surface antigen (HBsAg) production and hepatitis B DNA expression.
The HBsAg released into the culture medium in the presence or absence of test material was assayed using the kit manufactured by Shanghai Siic Kehua Biotech Co., Ltd (Shanghai, China). This enzyme immunoassay is based on the capture of HBsAg on monoclonal antibody-coated plates. Four- and twelve-fold dilutions of all culture supernatants collected were assayed in triplicate wells of the kit plate. The percentage inhibition of HBsAg secretion in the presence of the compound was calculated against the negative control (PBS). The IC50 values, the dose that inhibited viruses by 50%, were calculated using non-linear regression analysis (percent survival versus concentration).

HBeAg = experiment: Anti-HBSAg Assay (Procedure B), HBeAg; type: cell-based, hepatitis B virus
HBV DNA = experiment: Anti-HBV DNA Assay; type: cell-based, hepatitis B virus; settings: for HBV DNA copies/ml: replicates, listed as HP-S1
[2] = Enzyme Hydrolysis Processing Time 0.5 hours
[3] = Enzyme Hydrolysis Processing Time 4.0 hours

Compound: COc1cc2c(c(OC)c1OC)-c1ccc(OC)c(=O)cc1[C@@H](NC(C)=O)CC2 [Colchicine, colchicine]
- effect on disease progression (in words) (HCV; advanced liver disease): does not slow the disease progression

Compound: alpha-interferon
- patients with a pronounced effect in reducing HCV to a very low level in the blood (HCV; chronic hepatitis C patients): about 25%

Compound: COC(=O)C1=COC(O)C2C1C(O)CC2(C)O (mixture of isomers) [RD-16]
- HCV Inhibition at 20 μg/mL (HCV/HIV pseudovirions; [2]): 49.0
- HCV Inhibition at 20 μg/mL (HCV/HIV pseudovirions; [3]): 61.2
- Estimated IC50 (inhibition of HCV JFH1 infectivity) (HCV JFH1): 14 µg/mL

Compound: COC(=O)C1=CO[C@@H](O)[C@@H]2C(CO)=CC[C@H]12 [RD-4]
- inhibition at 20 µg/mL (HCV/HIV pseudovirions; Hepatitis C virus, Huh-7, read-out: HCV Inhibition at 20 μg/mL): 73.2%
- IC50 (HCV JFH1; Hepatitis C virus, read-out: Estimated IC50 (inhibition of HCV JFH1 infectivity)): 22 µg/mL (≈ 97.2 µM)

Compound: O=C(C=Cc1ccc(O)cc1)OCC1=CC(O)C2C=COC(O)C12 (mixture of isomers) [RD-18]
- HCV Inhibition at 20 μg/mL (HCV/HIV pseudovirions; [2]): 46.6
- HCV Inhibition at 20 μg/mL (HCV/HIV pseudovirions; [3]): 56.6
- Estimated IC50 (inhibition of HCV JFH1 infectivity) (HCV JFH1): 26 µg/mL

Compound: COC(=O)C1=COC(O)C2C1CC(O)C2C (mixture of isomers) [RD-8]
- HCV Inhibition at 20 μg/mL (HCV/HIV pseudovirions; [2]): 24.8
- HCV Inhibition at 20 μg/mL (HCV/HIV pseudovirions; [3]): 41.4
- Estimated IC50 (inhibition of HCV JFH1 infectivity) (HCV JFH1): 15 µg/mL

Compound: CC1C(O)CC2C(C(=O)O)=COC(O)C21 (mixture of isomers) [RD-17]
- HCV Inhibition at 20 μg/mL (HCV/HIV pseudovirions; [2]): 39.4
- HCV Inhibition at 20 μg/mL (HCV/HIV pseudovirions; [3]): 52.5
- Estimated IC50 (inhibition of HCV JFH1 infectivity) (HCV JFH1): 17 µg/mL

Compound: COC(=O)C1=CO[C@@H](O[C@@H]2O[C@H](CO)[C@@H](O)[C@H](O)[C@H]2O)[C@H]2[C@@H]1[C@H](O)[C@H](O)[C@]2(C)O [lamiridoside]
- % Control HBSAg [1]: 96%
- % Inhibition [1]: 4%
- % Cell Viability (Hep G2.2.15 cells): 100%
- HBsAg Ave. (HBsAg; 12.5 μg/mL): 1.262
- HBsAg Inhibition % (HBsAg; 12.5 μg/mL): 0%
- HBsAg OD1 (HBsAg; 12.5 μg/mL): 1.305
- HBsAg OD2 (HBsAg; 12.5 μg/mL): 1.149
- HBsAg OD3 (HBsAg; 12.5 μg/mL): 1.331
- HBsAg Ave. (HBsAg; 25 μg/mL): 1.474
- HBsAg Inhibition % (HBsAg; 25 μg/mL): 0%
- HBsAg OD1 (HBsAg; 25 μg/mL): 1.604
- HBsAg OD2 (HBsAg; 25 μg/mL): 1.418
- HBsAg OD3 (HBsAg; 25 μg/mL): 1.401
- HBsAg Ave. (HBsAg; 50 μg/mL): 1.473
- HBsAg Inhibition % (HBsAg; 50 μg/mL): 0%
- HBsAg OD1 (HBsAg; 50 μg/mL): 1.659
- HBsAg OD2 (HBsAg; 50 μg/mL): 1.504
- HBsAg OD3 (HBsAg; 50 μg/mL): 1.255
- HBsAg Ave. (HBsAg; 100 μg/mL): 1.507
- HBsAg Inhibition % (HBsAg; 100 μg/mL): 0%
- HBsAg OD1 (HBsAg; 100 μg/mL): 1.584
- HBsAg OD2 (HBsAg; 100 μg/mL): 1.469
- HBsAg OD3 (HBsAg; 100 μg/mL): 1.468
- HBsAg Ave. (HBsAg; 200 μg/mL): 1.527
- HBsAg Inhibition % (HBsAg; 200 μg/mL): 0%
- HBsAg OD1 (HBsAg; 200 μg/mL): 1.546
- HBsAg OD2 (HBsAg; 200 μg/mL): 1.504
- HBsAg OD3 (HBsAg; 200 μg/mL): 1.531
- anti-HBSAg activity (in words) (HBsAg; Tables 1-2): inactive
- HBeAg Ave (HBeAg; 12.5 μg/mL): 1.369
- HBeAg Inhibition % (HBeAg; 12.5 μg/mL): 0%
- HBeAg OD1 (HBeAg; 12.5 μg/mL): 1.509
- HBeAg OD2 (HBeAg; 12.5 μg/mL): 1.254
- HBeAg OD3 (HBeAg; 12.5 μg/mL): 1.345
- HBeAg Ave (HBeAg; 25 μg/mL): 1.512
- HBeAg Inhibition % (HBeAg; 25 μg/mL): 0%
- HBeAg OD1 (HBeAg; 25 μg/mL): 1.558
- HBeAg OD2 (HBeAg; 25 μg/mL): 1.488
- HBeAg OD3 (HBeAg; 25 μg/mL): 1.49
- HBeAg Ave (HBeAg; 50 μg/mL): 1.642
- HBeAg Inhibition % (HBeAg; 50 μg/mL): 0%
- HBeAg OD1 (HBeAg; 50 μg/mL): 1.774
- HBeAg OD2 (HBeAg; 50 μg/mL): 1.669
- HBeAg OD3 (HBeAg; 50 μg/mL): 1.482
- HBeAg Ave (HBeAg; 100 μg/mL): 1.558
- HBeAg Inhibition % (HBeAg; 100 μg/mL): 0%
- HBeAg OD1 (HBeAg; 100 μg/mL): 1.607
- HBeAg OD2 (HBeAg; 100 μg/mL): 1.502
- HBeAg OD3 (HBeAg; 100 μg/mL): 1.565
- HBeAg Ave (HBeAg; 200 μg/mL): 1.450
- HBeAg Inhibition % (HBeAg; 200 μg/mL): 0%
- HBeAg OD1 (HBeAg; 200 μg/mL): 1.095
- HBeAg OD2 (HBeAg; 200 μg/mL): 1.634
- HBeAg OD3 (HBeAg; 200 μg/mL): 1.621
- HBV DNA Average (HBV DNA; 12.5 μg/ml): 1.18 × 10^6 copies/ml
- HBV DNA Inhibit (HBV DNA; 12.5 μg/ml): 0.00%
- HBV DNA copies/ml (HBV DNA; 12.5 μg/ml): 1.32E+06 copies/ml and 9.64E+05 copies/ml and 1.26E+06 copies/ml
- HBV DNA Average (HBV DNA; 25 μg/ml): 1.64 × 10^6 copies/ml
- HBV DNA Inhibit (HBV DNA; 25 μg/ml): 0.00%
- HBV DNA copies/ml (HBV DNA; 25 μg/ml): 1.95E+06 copies/ml and 1.30E+06 copies/ml and 1.67E+06 copies/ml
- HBV DNA Average (HBV DNA; 50 μg/ml): 1.16 × 10^6 copies/ml
- HBV DNA Inhibit (HBV DNA; 50 μg/ml): 0.85%
- HBV DNA copies/ml (HBV DNA; 50 μg/ml): 1.26E+06 copies/ml and 1.14E+06 copies/ml and 1.07E+06 copies/ml
- HBV DNA Average (HBV DNA; 100 μg/ml): 1.02 × 10^6 copies/ml
- HBV DNA Inhibit (HBV DNA; 100 μg/ml): 12.80%
- HBV DNA copies/ml (HBV DNA; 100 μg/ml): 7.78E+05 copies/ml and 7.93E+05 copies/ml and 1.50E+06 copies/ml
- HBV DNA Average (HBV DNA; 200 μg/ml): 8.40 × 10^5 copies/ml
- HBV DNA Inhibit (HBV DNA; 200 μg/ml): 28.20%
- HBV DNA copies/ml (HBV DNA; 200 μg/ml): 1.17E+06 copies/ml and 5.77E+05 copies/ml and 7.74E+05 copies/ml
- Anti-HBV DNA activity (in words) (HBV DNA; Table 3): inactive
- inhibition of HCV/HIV entry (HCV/HIV pseudovirions; 100 μg/mL, FIG. 1): inactive
- anti-hepatitis C virus activity (in words) (HCV/HIV pseudovirions; FIG. 1): inactive

Compound: OCC1=CC(O)C2C=COC(O)C12 (mixture of isomers) [aucubin enzyme hydrolysate, reference compound]
- % Control HBSAg [1]: 96%
- % Inhibition [1]: 4%
- % Cell Viability (Hep G2.2.15 cells): 100%
